The results in this text go back to patent publication US8822500B2, “Tyrosine kinase inhibitors” (Chembridge Corporation, priority 2008, dated 2014).

Like-named read-outs stand apart in the source and are kept apart here.

The test system of one series is U937 lymphoma cells. Nature of the series: Cellular assay, 3 day cell viability (WST-1). It counts as cell-based. To be noted: Homo sapiens, U-937, 72 h. (Formazan colour is commonly taken as a measure of viable cells.)
A further series has as its system Caco-2 cells. Nature of the series: Caco-2 cell permeation study.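 On all read-outs here: Caco-2 monolayers grown for 21–28 days with integrity confirmed by TEER, apical buffer HBSS with MES, basolateral buffer HBSS with HEPES, compound levels quantified by LC/MS/MS.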 To be noted: 10 μM; for Papp (10−6 cm/sec) A to B: apical pH 6.5, 2 h. It counts as in vitro ADME. Background: Caco-2 cells form a polarised layer with tight junctions and transporters.
The nature of series [1]: Caco-2 cell permeation study.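 On all read-outs here: Caco-2 monolayers grown for 21–28 days with integrity confirmed by TEER, apical buffer HBSS with MES, basolateral buffer HBSS with HEPES, compound levels quantified by LC/MS/MS.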 The format is in vitro ADME. As to conditions: human; for Papp A→B at 2 h, 10 μM: Caco-2, pH 6.5, 10 μM, apical pH 6.5, 2 h; for Papp B→A at 2 h, 10 μM: Caco-2, pH 7.4, 10 μM, basolateral pH 7.4, 2 h.
The next series concerns NB-1 neuroblastoma cells. Briefly: Cellular assay, 3 day cell viability (WST-1). It counts as cell-based. To be noted: 72 h.
Series [2] is described as follows: Rat pharmacokinetics / bioavailability. To be noted: male, Sprague-Dawley, plasma. It counts as in vivo.
In the next series the test system is SUDHL-1 lymphoma cells. Nature of the series: Cellular assay, 3 day cell viability (WST-1). It counts as cell-based. To be noted: Homo sapiens, SU-DHL-1, 72 h.
For the next series, the target named is ALK (Homo sapiens (Human), UniProt Q9UM73). Nature of the series: In vitro kinase activity assay (LANCE TR-FRET). The format is biochemical. In general terms: Time-resolved FRET reads energy transfer from a long-lived donor to a nearby acceptor.
Sequence of ALK (Q9UM73 19-1620): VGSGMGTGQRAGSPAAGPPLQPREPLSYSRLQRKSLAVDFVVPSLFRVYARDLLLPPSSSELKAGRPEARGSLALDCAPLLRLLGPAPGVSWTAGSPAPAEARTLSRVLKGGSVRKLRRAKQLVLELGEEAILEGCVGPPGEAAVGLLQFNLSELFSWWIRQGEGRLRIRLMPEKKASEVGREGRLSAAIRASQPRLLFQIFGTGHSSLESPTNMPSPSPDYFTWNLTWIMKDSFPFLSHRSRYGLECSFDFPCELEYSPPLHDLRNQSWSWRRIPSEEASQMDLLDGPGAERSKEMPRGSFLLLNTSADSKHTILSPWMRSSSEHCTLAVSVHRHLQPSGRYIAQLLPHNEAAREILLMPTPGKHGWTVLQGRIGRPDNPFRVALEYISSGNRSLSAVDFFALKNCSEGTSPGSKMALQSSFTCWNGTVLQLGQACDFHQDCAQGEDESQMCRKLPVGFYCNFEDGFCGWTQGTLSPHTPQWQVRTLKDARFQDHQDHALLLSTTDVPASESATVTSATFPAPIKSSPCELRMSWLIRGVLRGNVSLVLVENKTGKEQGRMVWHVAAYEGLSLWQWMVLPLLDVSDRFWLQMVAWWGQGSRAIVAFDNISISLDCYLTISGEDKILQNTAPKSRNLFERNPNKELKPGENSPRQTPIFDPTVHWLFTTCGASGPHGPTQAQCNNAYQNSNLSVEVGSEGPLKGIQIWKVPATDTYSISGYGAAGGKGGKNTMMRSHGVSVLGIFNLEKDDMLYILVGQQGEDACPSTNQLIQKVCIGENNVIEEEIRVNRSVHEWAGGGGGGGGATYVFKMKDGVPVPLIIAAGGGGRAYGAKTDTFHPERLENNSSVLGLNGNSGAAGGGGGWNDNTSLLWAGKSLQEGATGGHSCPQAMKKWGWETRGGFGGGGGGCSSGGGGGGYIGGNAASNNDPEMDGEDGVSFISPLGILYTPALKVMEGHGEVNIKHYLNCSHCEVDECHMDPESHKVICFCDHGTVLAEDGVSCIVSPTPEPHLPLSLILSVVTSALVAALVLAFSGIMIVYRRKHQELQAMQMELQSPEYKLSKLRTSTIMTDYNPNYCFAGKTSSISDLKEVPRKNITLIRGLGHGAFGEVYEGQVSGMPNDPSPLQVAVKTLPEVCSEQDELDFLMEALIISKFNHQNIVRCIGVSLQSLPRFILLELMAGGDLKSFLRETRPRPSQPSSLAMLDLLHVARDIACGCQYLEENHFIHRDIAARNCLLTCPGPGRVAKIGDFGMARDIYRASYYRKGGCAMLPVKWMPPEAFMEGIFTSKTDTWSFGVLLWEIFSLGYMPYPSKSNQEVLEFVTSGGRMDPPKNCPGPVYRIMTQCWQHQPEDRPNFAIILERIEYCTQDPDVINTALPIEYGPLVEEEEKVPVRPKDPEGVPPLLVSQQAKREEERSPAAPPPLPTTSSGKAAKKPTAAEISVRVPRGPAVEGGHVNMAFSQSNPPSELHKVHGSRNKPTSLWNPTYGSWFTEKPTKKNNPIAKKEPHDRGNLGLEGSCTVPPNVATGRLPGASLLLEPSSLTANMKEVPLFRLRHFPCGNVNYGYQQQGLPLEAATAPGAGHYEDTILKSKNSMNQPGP
A further series concerns K299 lymphoma cells. Briefly: Cellular assay, 3 day cell viability (WST-1). As to conditions: 72 h, 3 days. The format is cell-based.
For the next series, the target named is INSR (Homo sapiens (Human), UniProt P06213). Nature of the series: In vitro kinase activity assay (LANCE TR-FRET). It counts as biochemical.
The next series concerns the target ALK (WT) (Homo sapiens (Human), UniProt Q9UM73). Nature of the series: Cell free kinase assay (Carna Biosciences kinases). The format is biochemical.
In a further series the test system is EML4-ALK BaF3 cells. Briefly: BaF3 stables cell viability (WST-1).
For series [3] the following is noted: microsomes, 0.5 μM, pH 7.4.
For series [4], the system named is EML4-ALK R1275Q BaF3 cells. Briefly: BaF3 stables cell viability (WST-1). As to conditions: read-out: BaF3 Stables IC50 nM R1275Q; EML4-ALK construct.
The subject of series [5] is EML4-ALK C1156Y BaF3 cells. Briefly: BaF3 stables cell viability (WST-1). As to conditions: read-out: BaF3 Stables IC50 nM C1156Y; EML4-ALK construct.
The next series addresses TrkA (Homo sapiens (Human), UniProt P04629). Nature of the series: In vitro kinase activity assay (LANCE TR-FRET). It counts as biochemical.
Another series has as its target cMET (Homo sapiens (Human), UniProt P08581). Briefly: In vitro kinase activity assay (LANCE TR-FRET). The format is biochemical.
The target in another series is ROS (Homo sapiens (Human), UniProt P08922). Briefly: In vitro kinase activity assay (LANCE TR-FRET). It counts as biochemical. To be noted: read-out: ROS (nM) IC50.
For another series, the target named is RET (Homo sapiens (Human), UniProt P07949). Nature of the series: In vitro kinase activity assay (LANCE TR-FRET). It counts as biochemical. As to conditions: read-out: RET (nM) IC50.
Series [6] deals with T1, hERG (human ether-a-go-go related gene) potassium channel (Homo sapiens (Human), UniProt Q12809). Briefly: hERG potassium channel current, automated patch clamp (PatchXpress 7000A).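 Further: Four-point series of 0.3, 3, 10 and 30 µM, two cells recorded per concentration, 5 min exposure at each level.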
T1 sequence (Q12809 whole entry): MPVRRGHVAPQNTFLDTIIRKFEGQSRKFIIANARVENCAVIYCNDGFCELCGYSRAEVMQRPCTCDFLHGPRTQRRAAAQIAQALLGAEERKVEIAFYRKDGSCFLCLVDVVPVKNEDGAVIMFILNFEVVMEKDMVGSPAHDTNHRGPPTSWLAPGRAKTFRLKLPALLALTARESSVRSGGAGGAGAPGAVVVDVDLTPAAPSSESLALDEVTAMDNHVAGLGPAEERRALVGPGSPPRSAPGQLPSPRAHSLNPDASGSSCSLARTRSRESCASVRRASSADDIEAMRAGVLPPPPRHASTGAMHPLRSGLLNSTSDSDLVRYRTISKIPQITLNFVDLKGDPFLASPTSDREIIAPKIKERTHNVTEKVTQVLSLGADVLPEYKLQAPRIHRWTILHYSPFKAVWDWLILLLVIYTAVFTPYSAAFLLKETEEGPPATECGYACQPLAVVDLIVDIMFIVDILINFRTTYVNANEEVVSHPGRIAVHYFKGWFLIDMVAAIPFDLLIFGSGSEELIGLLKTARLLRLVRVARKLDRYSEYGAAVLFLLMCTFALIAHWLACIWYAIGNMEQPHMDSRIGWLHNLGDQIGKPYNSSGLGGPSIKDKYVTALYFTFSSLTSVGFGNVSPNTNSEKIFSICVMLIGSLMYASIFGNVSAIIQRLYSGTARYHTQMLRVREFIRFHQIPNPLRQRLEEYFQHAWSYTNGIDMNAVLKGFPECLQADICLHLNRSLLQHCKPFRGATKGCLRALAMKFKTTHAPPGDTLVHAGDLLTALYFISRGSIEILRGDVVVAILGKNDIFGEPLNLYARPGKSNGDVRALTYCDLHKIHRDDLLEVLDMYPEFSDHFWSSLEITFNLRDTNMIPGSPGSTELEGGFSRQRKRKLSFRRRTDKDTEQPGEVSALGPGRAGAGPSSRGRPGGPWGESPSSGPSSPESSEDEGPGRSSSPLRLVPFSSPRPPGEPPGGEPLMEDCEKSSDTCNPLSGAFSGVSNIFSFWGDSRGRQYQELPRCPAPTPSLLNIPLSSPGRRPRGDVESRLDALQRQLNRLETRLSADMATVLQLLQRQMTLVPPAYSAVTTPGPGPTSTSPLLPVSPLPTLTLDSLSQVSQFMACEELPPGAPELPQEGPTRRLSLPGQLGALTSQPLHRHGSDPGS
A further series deals with hERG potassium channel (Homo sapiens (Human), UniProt Q12809). Briefly: in vitro.
Sequence of hERG potassium channel (Q12809 whole entry): as above
For series [7], the target named is T1, hERG (human ether-a-go-go related gene) potassium channel. As to conditions: 5 min.
The nature of series [8]: Metabolic stability, Phase I microsome reactions. As to conditions: mouse, liver microsomes, pH 7.4, Phase I only, 1.0 mg/ml microsomes, read-out: Mouse LM-P1 Half-life. It counts as in vitro ADME, mouse.
Series [9] in a line: in vitro. To be noted: human, microsomes.
A short description of series [10]: in vitro. As to conditions: rat, microsomes.
A further series addresses IGF1R (Homo sapiens (Human), UniProt P08069). Nature of the series: In vitro kinase activity assay (LANCE TR-FRET). The format is biochemical.
For a further series, the target named is TrkC (Homo sapiens (Human), UniProt Q16288). Briefly: In vitro kinase activity assay (LANCE TR-FRET). It counts as biochemical. To be noted: read-out: GTx-TrKC IC50.
Another series concerns the target TrkB (Homo sapiens (Human), UniProt Q16620). Nature of the series: In vitro kinase activity assay (LANCE TR-FRET). As to conditions: read-out: GTx-TrKB IC50. It counts as biochemical.
The mark [11] stands for this setting: 3 days, WST-1, read-out: GTx-U937 IC50.
The mark [12] stands for this setting: 3 days, WST-1, read-out: U937 IC50.
The mark [13] stands for this setting: Individual Data Points (% Inhibition).
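Wherever ALK (nM) IC50 is given: kinase reactions with ATP and a poly-GT peptide substrate, phosphorylated product read by time-resolved FRET, 11-point curve from 10^−11 to 10^−5 M, DMSO as negative control.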
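Wherever TrkA (nM) IC50 is given: kinase reaction with poly-GT peptide substrate and ATP, phosphorylated product quantified by time-resolved FRET, eleven-point dose curves from 10^−11 to 10^−5 M in triplicate, DMSO as negative control.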

Sequence of TrkA (P04629 33-796): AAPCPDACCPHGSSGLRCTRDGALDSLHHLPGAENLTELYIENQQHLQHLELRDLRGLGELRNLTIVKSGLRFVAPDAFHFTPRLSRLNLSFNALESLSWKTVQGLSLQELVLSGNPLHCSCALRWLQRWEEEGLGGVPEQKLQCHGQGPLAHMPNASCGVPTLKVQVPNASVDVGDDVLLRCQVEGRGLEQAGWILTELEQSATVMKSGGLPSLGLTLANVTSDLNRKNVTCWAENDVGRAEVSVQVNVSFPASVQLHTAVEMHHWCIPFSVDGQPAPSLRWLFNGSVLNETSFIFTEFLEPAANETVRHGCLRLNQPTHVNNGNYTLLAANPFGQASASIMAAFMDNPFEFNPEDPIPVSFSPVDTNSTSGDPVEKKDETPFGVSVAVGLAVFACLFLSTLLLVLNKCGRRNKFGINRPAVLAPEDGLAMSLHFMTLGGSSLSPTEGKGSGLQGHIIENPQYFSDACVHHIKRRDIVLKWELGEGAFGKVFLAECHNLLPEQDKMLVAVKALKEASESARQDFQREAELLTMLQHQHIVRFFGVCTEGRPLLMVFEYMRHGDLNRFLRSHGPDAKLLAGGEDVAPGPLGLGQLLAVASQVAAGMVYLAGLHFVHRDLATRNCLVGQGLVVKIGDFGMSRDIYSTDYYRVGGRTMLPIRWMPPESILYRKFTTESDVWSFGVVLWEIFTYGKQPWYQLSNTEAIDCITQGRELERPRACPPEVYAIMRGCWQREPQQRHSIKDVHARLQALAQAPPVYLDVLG

Regarding `CC(Oc1cc(-c2cnn(C3CCNCC3)c2)cnc1N)c1c(Cl)ccc(F)c1Cl` (racemic) [PF2341066, crizotinib, reference compound], the IC50 (usually the midpoint of a concentration-inhibition curve) in the series with U937 lymphoma cells (read-out: GTx-U937 IC50 (uM)) turned out to be 1.67 µM; with U937 lymphoma cells (read-out: U937 IC50(μM)) it was 1.67 µM; in the series on NB-1 neuroblastoma cells (read-out: GTx-NB-1 IC50 (uM)) it was 0.167 µM; in the series with NB-1 neuroblastoma cells (read-out: NB-1 IC50(μM)), 0.167 µM; in the series with SUDHL-1 lymphoma cells (read-out: GTx-SUDHL-1 IC50 (uM)), 0.132 µM; in the series with SUDHL-1 lymphoma cells (read-out: SUDHL-1 IC50(μM)), 0.132 µM. Further, the “Papp (10−6 cm/sec) A to B” value in the series on Caco-2 cells (listed as Pfizer) is >0.2 10−6 cm/sec; with Caco-2 cells (listed as Pfizer (PF2341066)) it was <0.2 10−6 cm/sec. For the same compound, the “Papp (10−6 cm/sec) B to A” value with Caco-2 cells (basolateral pH 7.4, 2 h) is given as 50.7 10−6 cm/sec. In series [1], the Papp A→B (usually how fast a substance crosses the layer from the apical side) at 2 h, 10 μM was less than 0.2 ×10⁻⁶ cm/s. For the same compound, the Papp B→A (as a rule, the apparent permeability from the basolateral to the apical side of a cell layer) at 2 h, 10 μM in series [1] was determined as 50.7 ×10⁻⁶ cm/s. In addition, the mean residence time (MRT) (usually a mean duration of stay, worked out from the concentration-time curve) in [2] (iv, 10 mg/kg I.V.) was 1.88 h. Further, the highest level in series [2] (po, 10 mg/kg P.O.) (Cmax) was 58.3 ng/mL. Besides, the time to peak (Tmax) – broadly, the time from dosing to the highest level – in series [2] (po, 10 mg/kg P.O.) was 5.25 h.
As for `COc1cc([C@@H]2c3cc4c(cc3[C@H](O)[C@H]3COC(=O)[C@@H]23)OCO4)cc(OC)c1OC` (racemic) [PPP, reference compound], the 50% inhibitory concentration (IC50) in the series with U937 lymphoma cells (setting [11]) was 0.138 µM; in the series on U937 lymphoma cells (setting [12]) it was 0.138 µM; on ALK (read-out: ALK IC50) it was greater than 10000 nM; on ALK (read-out: GTx-ALK IC50) it was greater than 10000 nM; in the series on K299 lymphoma cells (read-out: GTx-K299 IC50) it was 196 nM; in the series with K299 lymphoma cells (read-out: K299 IC50) it was 196 nM. Moreover, the half-maximal inhibitory concentration (IC50) on INSR (read-out: GTx-IRK IC50) was greater than 10000 nM.
Regarding `C[C@@H](Cc1c(F)c(F)cc(F)c1F)Nc1cc[nH]c(=O)c1-c1nc2cc3c(cc2[nH]1)CN(CCN(C)C)C3=O` (single isomer, unassigned) [Compound 1 R isomer], the “cell free activity (in words)” value on ALK (WT) is “inactive”. Moreover, in the series on EML4-ALK BaF3 cells (Mus musculus, BaF3, read-out: BaF3 Stables IC50 nM EML4-ALK), the half-maximal inhibitory concentration (IC50) amounted to 1060 nM.
Take “(S)-6-(1-Methylpiperidin-4-yl)-2-(2-oxo-4-(1-(2,3,5,6-tetrafluorophenyl)propan-2-ylamino)-1,2-dihydropyridin-3-yl)-6,7-dihydroimidazo[4,5-f]isoindol-5(3H)-one [Compound 4]”: the “Rat LM-P1 Half-life” value in series [3] was greater than 2 h. Besides, the IC50 in [4] came to 288 ± 20 nM; on ALK (read-out: ALK (nM) IC50), 9.81 nM; on ALK (read-out: GTx-ALK IC50) it was 10 nM; in the series with EML4-ALK BaF3 cells (read-out: BaF3 Stables IC50 nM EML4-ALK, EML4-ALK parent construct), 143 ± 6 nM; in series [5], 283 ± 43 nM; at TrkA (read-out: TrkA (nM) IC50) it was 5 nM.
Turning to `C[C@@H](Cc1c(F)c(F)cc(F)c1F)Nc1cc[nH]c(=O)c1-c1nc2cc3c(cc2[nH]1)C(=O)N(CCN(C)C)C3=O` [Compound 2, (S)-6-(2-(Dimethylamino)ethyl)-2-(2-oxo-4-((1-(2,3,5,6-tetrafluorophenyl)propan-2-yl)amino)-1,2-dihydropyridin-3-yl)imidazo[4,5-f]isoindole-5,7(1H,6H)-dione], the IC50 with U937 lymphoma cells (setting [12]) is greater than 10 µM; against cMET, 14 nM; at ROS, 0.436 nM; on RET, 25.8 nM; in [6], greater than 30000 nM; on ALK (read-out: ALK (nM) IC50), 14 nM. In addition, the IC50 at ALK (read-out: ALK IC50) stood at 14 nM; in the series with K299 lymphoma cells (read-out: K299 IC50), 1920 nM; in the series with NB-1 neuroblastoma cells (3 days, WST-1, read-out: NB-1 IC50) it was 0.666 µM; in the series on SUDHL-1 lymphoma cells (3 days, WST-1, read-out: SUDHL-1 IC50), 2.74 µM; at TrkA (read-out: TrKA IC50), 12 nM; on TrkA (read-out: TrkA (nM) IC50) it was 12.2 nM. Besides, the efflux ratio (usually the permeability from basolateral to apical divided by that in the opposite direction, in the common usage) at 2 h, 10 μM in [1] (Caco-2, Caco-2) is greater than 17.8. In addition, the apparent permeability from apical to basolateral (Papp A→B) at 2 h, 10 μM in series [1] was less than 0.2 ×10⁻⁶ cm/s. In addition, in [1], the Papp B→A at 2 h, 10 μM amounted to 3.6 ×10⁻⁶ cm/s.
`C[C@@H](Cc1c(F)c(F)cc(F)c1F)Nc1cc[nH]c(=O)c1-c1nc2cc3c(cc2[nH]1)CN(CCN1CCCC1)C3=O` [Compound 3]: the inhibition (commonly the percentage by which the read-out fell short of the control) at 5 min, 0.3 µM against hERG potassium channel (setting [13]) worked out at 13.2%; against hERG potassium channel (Mean % hERG Inhibition) it was 12.2%. Also, the inhibition at 5 min, 3 µM on hERG potassium channel (setting [13]) amounted to 49.1%; against hERG potassium channel (Mean % hERG Inhibition) it was 49.4%. The inhibition at 5 min, 10 µM on hERG potassium channel (setting [13]) is 75.7%; against hERG potassium channel (Mean % hERG Inhibition), 73.3%. Also, the inhibition at 5 min, 30 µM on hERG potassium channel (setting [13]) came to 87.2%; against hERG potassium channel (Mean % hERG Inhibition), 84.4%. In addition, the IC50 in series [6] is 3170 nM. The “Individual Data Points (% Inhibition)” value in series [7] (0.3 µM) was found to be 11.2%; in series [7] (3 µM), 49.7%; in [7] (10 µM) it was 70.8%; in series [7] (30 µM) it was 81.7%.
On to `C[C@@H](Cc1cc(F)cc(F)c1F)Nc1cc[nH]c(=O)c1-c1nc2cc3c(cc2[nH]1)CN(CCN(C)C)C3=O` [Compound 31], for which the IC50 was 2.2 µM with U937 lymphoma cells (setting [12]); 1 nM on ALK (read-out: ALK IC50); 154 nM in the series on K299 lymphoma cells (read-out: K299 IC50); 299 nM at IGF1R; 578 nM at INSR (read-out: IRK IC50); 4 nM at TrkA (read-out: TrKA IC50). In addition, the half-life (commonly the time in which the quantity being followed falls by half) at 0.5 μM is 0.484 h in [8]; greater than 2 h in the series “in vitro [9]” (pH 7.4, Human LM-P1 Half-life (min)); 8.7 min in the series “in vitro [10]” (pH 7.4). In addition, the microsomal CLint (as a rule, a measure of how fast metabolising enzymes remove a compound, apart from limits set by blood flow) at 0.5 μM was less than 5.8 µL/min/mg in “in vitro [9]” (pH 7.4, Human LM-P1 CL (ul/min/mg)) and 79.9 µL/min/mg in “in vitro [10]” (pH 7.4, Rat LM-P1 CL (ul/min/mg)).
In the case of `Cc1ccc(F)cc1CC(C)Nc1cc[nH]c(=O)c1-c1nc2cc3c(cc2[nH]1)CN(C)C3=O` (stereo not shown) [Compound 44, 2-(4-(1-(5-Fluoro-2-methylphenyl)propan-2-ylamino)-2-oxo-1,2-dihydropyridin-3-yl)-6-methyl-6,7-dihydroimidazo[4,5-f]isoindol-5(1H)-one], the half-inhibitory concentration (IC50) is greater than 3 µM in the series on U937 lymphoma cells (setting [11]); 37 nM at ALK (read-out: GTx-ALK IC50); 798 nM with K299 lymphoma cells (read-out: GTx-K299 IC50); 1 nM at TrkC; 4 nM on TrkB; 0.829 µM with SUDHL-1 lymphoma cells (3 days, WST-1, read-out: GTx-SUDHL-1 IC50). On TrkA (read-out: GTx-TrKA IC50), the IC50 turned out to be 4 nM.
